We go through seven molecules from PMC9607427, “Novel 7-Chloro-(4-thioalkylquinoline) Derivatives: Synthesis and Antiproliferative Activity through Inducing Apoptosis and DNA/RNA Damage” (Pharmaceuticals, 2022).

For data set [1], the system named is MRC-5 (noncancerous human lung fibroblasts). The data set is described as follows: Cytotoxic MTS assay, MRC-5. The format is cell-based. The method in brief: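 Compounds in DMSO are dispensed at time zero onto cells at 25,000–35,000 cells/mL. After 72 h incubation, MTS is added for 1–4 h and optical density at 490 nm is read. IC50 marks 50% cell growth inhibition.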

For data set [2], the system named is HCT116p53−/− (HCT116 with deleted p53 gene). The experiment in a line: Cytotoxic MTS assay, HCT116p53−/−. Type of data set: cell-based, human. A digest of the protocol: (§1)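 Read-out was MTS absorbance at 490 nm, converted to tumor cell survival and fitted for the concentration inhibiting growth by 50%. Cells had been incubated with compound for 72 h in DMEM/RPMI 1640 with 10% fetal calf serum.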

In data set [3] the test system is A549 (lung adenocarcinoma). The experiment in a line: Cytotoxic MTS assay, A549. Type of data set: cell-based, human. A digest of the protocol:
as §1

The test system of the next data set is CCRF-CEM lymphoblasts. The data set is described as follows: BrU incorporation analysis (RNA synthesis). As to conditions: 24 h. The format is cell-based, human. Here is the method: The effect of compounds on cell cycle distribution was determined to gain insights into the mechanism of its antiproliferative activity. […] For example, as compared with control, the percentage of cells in G2/M phases was increased by treatment with 5 × IC50 μM of compounds for 24 h (Table 4). […] As shown in (Table 4), there was a marked increase in the sub-G1 from 2.91 in untreated cells. 5-Bromo-2-deoxyuridine (BrDU) is incorporated into newly synthesized DNA, and 5-bromouridine (BrU) pulse labeling is therefore commonly used as a proliferation marker. Low BrDU and BrU incorporation into the DNA or RNA, respectively, of treated cells with all compounds at 5 × IC50 reflected inhibition of DNA and RNA synthesis, indicating irreversible apoptotic changes. The percentage of […] cells incorporating 5-bromouridine is proportional to the transcriptional activity of CCRF-CEM cells. Cells were cultured and treated as described above. Before harvesting, pulse-labeling with 1 mM BrU for 30 min followed. The cells were then fixed in 1% buffered paraformaldehyde with 0.05% NP-40 at rt for 15 min, and then stored at 4 °C overnight. Before measurement, they were washed with 1% glycine in PBS, washed with PBS again and stained with primary anti-BrDU antibody cross-reacting to BrU (Exbio) for 30 min at rt in the dark. From this point, the experiment was performed exactly as in the previous method.

In data set [4] the test system is CEM-DNR bulk (daunorubicin-resistant subline of CCRF-CEM cells). The experiment in a line: Cytotoxic MTS assay, CEM-DNR. Type of data set: cell-based, human. The method in brief: as §1
Data set [5] relates to K562 (chronic myeloid leukemia). The experiment in a line: Cytotoxic MTS assay, K562. The format is cell-based, human. The method in brief: as §1
The subject of the next data set is U2OS (osteosarcoma). The experiment in a line: Cytotoxic MTS assay, U2OS. Type of data set: cell-based, human. The method in brief: as §1
For data set [6], the system named is CCRF-CEM (childhood T cell acute lymphoblastic leukemia). The data set is described as follows: Cytotoxic MTS assay, CCRF-CEM. The format is cell-based, human. The method in brief:
as §1

[7] abbreviates: 5 × IC50 (second value of cell).

As to `COc1ccc(C(=O)OCCS(=O)(=O)c2cc[n+]([O-])c3cc(Cl)ccc23)cc1` [Compound 63, 2-[(N-Oxide 7-chloroquinolin-4-yl)sulfonyl]ethyl-4-methoxybenzoate], the IC50 in data set [1] came out at 4 µM; in data set [2], 16.4 µM; in data set [3], 28.8 µM; in data set [4], 8.74 µM; in data set [5], 5.38 µM; in the data set on U2OS (osteosarcoma), 5.71 µM. For the same molecule, 0.77 µM corresponded to half-maximal inhibition in data set [6] (IC50). The “RNA Synthesis (% positive of cells)” value in the data set with CCRF-CEM lymphoblasts (1 × IC50 (first value of cell)) worked out at 35.01%; with CCRF-CEM lymphoblasts (setting [7]) it was 2.79%.

On to `COc1ccc(OC)c(C(=O)OCCS(=O)(=O)c2cc[n+]([O-])c3cc(Cl)ccc23)c1` [Compound 65, 2-[(N-Oxide 7-chloroquinolin-4-yl)sulfonyl]ethyl-2,5-dimethoxybenzoate], for which the IC50 in data set [1] was found to be 4.95 µM; in data set [2] it was 8.26 µM; in data set [3] it was 28.2 µM; in data set [4], 8.97 µM; in data set [5] it was 5.85 µM; in the data set on U2OS (osteosarcoma) it was 7.67 µM. Also, half-maximal inhibition in data set [6] (IC50) was put at 0.55 µM. In addition, the “RNA Synthesis (% positive of cells)” value with CCRF-CEM lymphoblasts (1 × IC50 (first value of cell)) is reported as 36.04%; in the data set with CCRF-CEM lymphoblasts (setting [7]), 24.95%.

Regarding `COc1cc(OC)c(C(=O)OCCS(=O)(=O)c2cc[n+]([O-])c3cc(Cl)ccc23)cc1OC` [Compound 66, 2-[(N-Oxide 7-chloroquinolin-4-yl)sulfonyl]ethyl-2,4,5-trimethoxybenzoate], the IC50 in data set [1] turned out to be 5.07 µM; in data set [2], 7.94 µM; in data set [3], 28 µM; in data set [4], 8.03 µM; in data set [5], 5.3 µM; with U2OS (osteosarcoma) it was 8.25 µM. For the same molecule, the IC50 in data set [6] is 1.11 µM. Besides, the “RNA Synthesis (% positive of cells)” value with CCRF-CEM lymphoblasts (1 × IC50 (first value of cell)) is recorded as 29.44%; in the data set with CCRF-CEM lymphoblasts (setting [7]), 3.05%.

On to `COc1ccccc1C(=O)OCCS(=O)(=O)c1cc[n+]([O-])c2cc(Cl)ccc12` [Compound 68, 2-[(N-Oxide 7-chloroquinolin-4-yl)sulfonyl]ethyl-2-methoxybenzoate], for which the IC50 in data set [1] is 4.92 µM; in data set [2], 8.3 µM; in data set [3] it was 27 µM; in data set [4], 12.2 µM; in data set [5] it was 4.72 µM; in the data set on U2OS (osteosarcoma), 6.9 µM. In data set [6], this molecule came in with an IC50 of 1.23 µM. The “RNA Synthesis (% positive of cells)” value in the data set on CCRF-CEM lymphoblasts (1 × IC50 (first value of cell)) is recorded as 37.4%; in the data set with CCRF-CEM lymphoblasts (setting [7]), 3.8%.

In the case of `COc1ccc(C(=O)OCCS(=O)(=O)c2cc[n+]([O-])c3cc(Cl)ccc23)cc1[N+](=O)[O-]` [Compound 69, 2-[(N-Oxide 7-chloroquinolin-4-yl)sulfonyl]ethyl-4-methoxy-3-nitrobenzoate], the IC50 in data set [1] was determined as 8.41 µM; in data set [2], 11.2 µM; in data set [3], 28.3 µM; in data set [4], 19.1 µM; in data set [5], 6.49 µM; in the data set on U2OS (osteosarcoma) it was 10.3 µM. For the same molecule, it took 1.38 µM to reach half-maximal inhibition in data set [6] (IC50). Moreover, the “RNA Synthesis (% positive of cells)” value in the data set with CCRF-CEM lymphoblasts (1 × IC50 (first value of cell)) is on record as 31.54%; with CCRF-CEM lymphoblasts (setting [7]), 2.64%.

As to `Cc1ccc([N+](=O)[O-])c(C(=O)OCCS(=O)(=O)c2cc[n+]([O-])c3cc(Cl)ccc23)c1` [Compound 70, 2-[(N-Oxide 7-chloroquinolin-4-yl)sulfonyl]ethyl-5-methyl-2-nitrobenzoate], the IC50 in data set [1] was found to be 22.9 µM; in data set [2], 8.75 µM; in data set [3], 28.2 µM; in data set [4] it was 17.4 µM; in data set [5], 6.1 µM; in the data set on U2OS (osteosarcoma), 9.92 µM. In data set [6], this molecule registered an IC50 of 1.16 µM. For the same molecule, the “RNA Synthesis (% positive of cells)” value with CCRF-CEM lymphoblasts (1 × IC50 (first value of cell)) is 35.28%; in the data set on CCRF-CEM lymphoblasts (setting [7]), 2.88%.

As for `O=C(OCCS(=O)(=O)c1cc[n+]([O-])c2cc(Cl)ccc12)c1ccc(C(F)(F)F)cc1` [Compound 72, 2-[(N-Oxide 7-chloroquinolin-4-yl)sulfonyl]ethyl-4-(trifluoromethyl)benzoate], the IC50 was 24.4 µM in data set [1]; 16.4 µM in data set [2]; 28.5 µM in data set [3]; 25.2 µM in data set [4]; 3.02 µM in data set [5]; 18.4 µM in the data set with U2OS (osteosarcoma). This molecule also gave an IC50 in data set [6] of 2.14 µM. For the same molecule, the “RNA Synthesis (% positive of cells)” value in the data set with CCRF-CEM lymphoblasts (1 × IC50 (first value of cell)) is 21.64%; with CCRF-CEM lymphoblasts (setting [7]) it was 2.19%.
